Data published in the supplement of paper PMC4862054.

Experiments:
Settings in all cases: incubation time: 72 h
MDA-MB-468 [1] = test: normalised response (% of control), CellTox Green; higher = less cell death (100 = DMSO, 0 = benzethonium chloride kill control)
In short: (§1)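 A 20 µl suspension of breast cancer cells was seeded into each well of 384-well plates containing compound at 5 concentrations in 10-fold steps over a compound-specific 10,000-fold range. After 72 h incubation, CellTox Green fluorescence (485/520 nm) was read first, and CellTiter-Glo luminescence was read after 10 min at room temperature. Each plate was normalised against 0.1 % DMSO (100) and a positive kill control (0), and each value is the normalised signal at one concentration.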

MDA-MB-453 [2] = test: as above
In short: as §1

BT-549 [3] = test: as above
In short: as §1

BT-474 [4] = test: as above
In short: as §1

MCF-10A [5] = test: as above
In short: as §1

MFM-223 [6] = test: as above
In short: as §1

HCC1937 [7] = test: as above
In short: as §1

DU-4475 [8] = test: as above
In short: as §1

CAL-51 [9] = test: as above
In short: as §1

CAL-120 [10] = test: as above
In short: as §1

MDA-MB-436 [11] = test: as above
In short: as §1

CAL-85-1 [12] = test: as above
In short: as §1

HCC1143 [13] = test: as above
In short: as §1

CAL-148 [14] = test: as above
In short: as §1

Hs578T [15] = test: as above
In short: as §1

MDA-MB-231 [16] = test: as above
In short: as §1

HCC1599 [17] = test: as above
In short: as §1

MDA-MB-468 [18] = test: normalised response (% of control), CellTiter-Glo; higher = more viable cells (100 = DMSO, 0 = benzethonium chloride kill control)
Procedure: (§2)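 DSRT, 72 h incubation, CellTox Green / CellTiter-Glo readout. Signal is normalised to DMSO and benzethonium chloride controls. Value is the normalised response at dose 3.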

MDA-MB-453 [19] = test: as above
Procedure: as §2

SK-BR-3 = test: as above
Procedure: as §2

BT-549 [20] = test: as above
Procedure: as §2

BT-474 [21] = test: as above
Procedure: as §2

MCF-10A [22] = test: as above
Procedure: as §2

HDQ-P1 [23] = test: as above
Procedure: as §2

MFM-223 [24] = test: as above
Procedure: as §2

HCC1937 [25] = test: as above
Procedure: as §2

DU-4475 [26] = test: as above
Procedure: as §2

CAL-51 [27] = test: as above
Procedure: as §2

CAL-120 [28] = test: as above
Procedure: as §2

MDA-MB-436 [29] = test: as above
Procedure: as §2

CAL-85-1 [30] = test: as above
Procedure: as §2

HCC1143 [31] = test: as above
Procedure: as §2

CAL-148 [32] = test: as above
Procedure: as §2

Hs578T [33] = test: as above
Procedure: as §2

MDA-MB-231 [34] = test: as above
Procedure: as §2

HCC1599 [35] = test: as above
Procedure: as §2

HDQ-P1 [36] = test: normalised response (% of control), CellTox Green; higher = less cell death (100 = DMSO, 0 = benzethonium chloride kill control)
In short: as §1

SMILES	normalised response (MDA-MB-468 [1])	normalised response (MDA-MB-453 [2])	normalised response (BT-549 [3])	normalised response (BT-474 [4])	normalised response (MCF-10A [5])	normalised response (MFM-223 [6])	normalised response (HCC1937 [7])	normalised response (DU-4475 [8])	normalised response (CAL-51 [9])	normalised response (CAL-120 [10])	normalised response (MDA-MB-436 [11])	normalised response (CAL-85-1 [12])	normalised response (HCC1143 [13])	normalised response (CAL-148 [14])	normalised response (Hs578T [15])	normalised response (MDA-MB-231 [16])	normalised response (HCC1599 [17])	normalised response (MDA-MB-468 [18])	normalised response (MDA-MB-453 [19])	normalised response (SK-BR-3)	normalised response (BT-549 [20])	normalised response (BT-474 [21])	normalised response (MCF-10A [22])	normalised response (HDQ-P1 [23])	normalised response (MFM-223 [24])	normalised response (HCC1937 [25])	normalised response (DU-4475 [26])	normalised response (CAL-51 [27])	normalised response (CAL-120 [28])	normalised response (MDA-MB-436 [29])	normalised response (CAL-85-1 [30])	normalised response (HCC1143 [31])	normalised response (CAL-148 [32])	normalised response (Hs578T [33])	normalised response (MDA-MB-231 [34])	normalised response (HCC1599 [35])	normalised response (HDQ-P1 [36])
Cc1c(Cn2c(C)nc3c(C(=O)O)cc(N4CCOCC4)cc32)cccc1C(F)(F)F (100 nM)	134%	111%	111%	104%	101%	107%	78%	109%	86.7%	106%	108%	104%	113%	105%	109%	124%	107%	89.2%	91.3%	107%	86.2%	97.2%	111%	103%	108%	94.5%	103%	62.5%	102%	102%	96.6%	101%	111%	101%	104%	101%	–
CCCCC/C=C/C=C1/C(=O)C=C[C@@H]1C/C=C\CCCC(=O)O [15D-PGJ2] (8 nM)	82%	–	112%	102%	64.6%	100%	101%	110%	107%	99.3%	103%	109%	105%	88.1%	113%	118%	111%	94%	100%	99.4%	99.3%	98.7%	101%	103%	98.5%	99.1%	101%	97.1%	107%	101%	100%	104%	112%	96.9%	107%	86.3%	–
CC(=O)OC[C@H]1O[C@@H]([S-])[C@H](OC(C)=O)[C@@H](OC(C)=O)[C@@H]1OC(C)=O.CCP(CC)CC.[Au+] [Auranofin] (25 nM)	117%	109%	110%	105%	62.3%	102%	113%	112%	100%	110%	–	122%	88.9%	108%	–	123%	111%	103%	104%	101%	93.1%	96.8%	104%	101%	97.8%	93.8%	98.2%	92.5%	100%	103%	99%	104%	111%	103%	103%	89.1%	93.8%
O=S(=O)(c1cccc2cnccc12)N1CCCNCC1 [Fasudil] (500 nM)	78.7%	99.9%	91.3%	98.3%	95%	91.7%	83.3%	100%	102%	100%	–	95.6%	75%	69.2%	104%	101%	101%	101%	112%	101%	101%	98.3%	90.7%	105%	108%	100%	106%	85.6%	97.9%	103%	112%	101%	105%	104%	103%	107%	102%
Cc1c(CN2CCN(C(=O)[C@H](C)O)CC2)sc2c(N3CCOCC3)nc(-c3cnc(N)nc3)nc12 [GDC-0980] (100 nM)	124%	98%	106%	101%	83.3%	105%	114%	99.9%	112%	102%	108%	106%	113%	–	–	81.2%	106%	95.9%	75.8%	72.5%	90.1%	93.5%	90.8%	84%	93.6%	89.3%	98%	86.3%	96.2%	92.5%	99.9%	92.9%	102%	86.2%	97.1%	98.3%	110%
Cc1cccc(-c2nn3c(c2-c2ccnc4ccc(C(N)=O)cc24)CCC3)n1 [Galunisertib] (10 nM)	101%	103%	114%	103%	82.4%	107%	123%	109%	114%	105%	104%	107%	70.5%	106%	100%	116%	116%	107%	110%	110%	104%	108%	111%	104%	106%	101%	108%	120%	109%	106%	96.8%	103%	112%	103%	113%	102%	–
COc1nc(N)nc2c1ncn2[C@@H]1O[C@H](CO)[C@@H](O)[C@@H]1O [Nelarabine] (100 nM)	135%	97.5%	98.7%	75.7%	–	100%	88.7%	95.2%	93.8%	98.4%	90.5%	90.6%	–	104%	107%	92.1%	87%	95.6%	87.2%	77.8%	98.1%	89.2%	84.9%	95.9%	89%	95.5%	93.6%	90.7%	94.2%	94%	94.7%	103%	83.2%	87.1%	94.2%	103%	–
O=C(NC[C@H](O)CO)c1ccncc1Nc1ccc(I)cc1F [Pimasertib] (100 nM)	108%	99.4%	59.3%	98%	98.9%	107%	101%	69.4%	107%	96.5%	–	91.4%	99.8%	107%	113%	59.1%	118%	95.3%	112%	94%	103%	81.9%	41.7%	67.1%	103%	89.2%	4.09%	73.7%	92.4%	97.5%	82.4%	94.7%	90.4%	88.9%	83.5%	85.2%	104%
O=C(CCBr)N1CCN(C(=O)CCBr)CC1 [Pipobroman] (100 nM)	–	–	70.2%	87.5%	84.8%	103%	–	101%	101%	101%	101%	109%	108%	105%	–	94.4%	96.6%	102%	93.2%	107%	97.6%	102%	106%	102%	103%	106%	106%	88%	102%	91.5%	101%	105%	105%	105%	105%	115%	107%
